This note sets out measurements from the Kinase Knowledgebase extract (Sharma et al. 2016).

In the test the target is CDK2 (UniProt P24941). The test is described as follows: Enzyme Assay.

As a reminder, the IC50 is the concentration that gives 50% inhibition. A lower IC50 goes with inhibition by little substance. On to `COc1ccccc1-c1cc(Nc2ccc(NC(=O)C(c3ccccc3)N(C)C)cc2)ncn1` (configuration not stated), for which the IC50 was 1 to 10 µM.
The same measure for `COc1ccccc1-c1cc(Nc2cccc(NC(=O)C(C)(C)C)c2)ncn1`: 1 to 10 µM; for `Nc1cccc(-c2cc(Nc3ccc(S(N)(=O)=O)cc3)ncn2)c1`: 0.001 to 1 µM.
`COc1ccccc1-c1cc(Nc2ccc(C(=O)Nc3ccc(O)cc3)cc2)ncn1` displayed an IC50 of 1 to 10 µM.
To `COc1ccccc1-c1cc(Nc2ccc(NC(=N)N)cc2)ncn1` belongs 1 to 10 µM; to `Cc1ccc(Nc2cc(-c3cccc(O)c3)ncn2)cc1NS(C)(=O)=O`, 0.001 to 1 µM.
Take `COc1ccccc1-c1cc(Nc2ccc(C(=O)N[C@@H]3CCCC[C@H]3O)cc2)ncn1.COc1ccccc1-c1cc(Nc2ccc(C(=O)N[C@H]3CCCC[C@@H]3O)cc2)ncn1`: the IC50 is 1 to 10 µM.
The compound `COc1cccc(-c2cc(Nc3ccc(NC(=O)[C@@H]4CCCCN4)cc3)ncn2)c1OC` displayed an IC50 of 10 to 250 µM.
The same measure for `COc1ccccc1-c1cc(Nc2cccc(C(N)=O)c2)ncn1`: 0.001 to 1 µM; for `COc1cccc(OC)c1-c1cc(Nc2ccc(NC(=O)c3ccc(N)cc3)cc2)ncn1`: 10 to 250 µM; for `COc1ccccc1-c1cc(Nc2ccc(NS(=O)(=O)c3ccc(-c4ccccc4)cc3)cc2)ncn1`: 1 to 10 µM.
As to `COc1ccccc1-c1cc(Nc2ccc(NC(=O)C3CCCCC3)cc2)ncn1`, the IC50 lay within 10 to 250 µM.
The compound `COc1ccccc1-c1ncnc(Nc2ccc(N)cc2)c1C` returned an IC50 of 10 to 250 µM.
Regarding `O=C(Nc1ccc(Nc2cc(-c3ccc(Oc4ccccc4)cc3)ncn2)cc1)[C@@H]1CCCCN1`, the IC50 fell in the range of 1 to 10 µM.
`CC(C)(C)C(=O)Nc1ccc(Nc2cc(-c3ccccc3F)ncn2)cc1` had an IC50 of 10 to 250 µM.
`COc1ccccc1-c1cc(Nc2ccc(C)c(NS(C)(=O)=O)c2)ncn1` yielded an IC50 of 0.001 to 1 µM.
Consider `c1ccc(COc2ccccc2-c2cc(NCCc3ccncc3)ncn2)cc1`, for which the IC50 was 1 to 10 µM.
As to `O=C(Nc1ccc(Nc2cc(-c3ccccc3OCc3ccccc3)ncn2)cc1)[C@@H]1CCCCN1`, the IC50 fell in the range of 0.001 to 1 µM.
As for `COc1ccccc1-c1cc(Nc2ccc(NC(=O)CC(C)(C)C)cc2)ncn1`, the IC50 was in the range of 1 to 10 µM.
With `CC(C)(C)C(=O)Nc1ccc(Nc2cc(-c3cccnc3)ncn2)cc1`, the IC50 was in the range of 10 to 250 µM.
Take `COC(=O)/C=C/c1cccc(-c2cc(Nc3ccc(C)c(NS(C)(=O)=O)c3)ncn2)c1`: the IC50 was 1 to 10 µM.
Compound `COc1ccccc1-c1cc(Nc2ccc(C(N)=O)cc2)ncn1` showed an IC50 of 0.001 to 1 µM.
For `COc1ccccc1-c1cc(Nc2ccc(-c3nc4ccccc4[nH]3)cc2)ncn1`, the IC50 is 0.001 to 1 µM.
The same measure for `COc1ccccc1-c1cc(Nc2ccc(NS(=O)(=O)c3ccc(C(C)C)cc3)cc2)ncn1`: 1 to 10 µM; for `COc1ccccc1-c1cc(Nc2ccc(NC(=O)[C@@H](N)C(C)C)cc2)ncn1`: 1 to 10 µM.
For `COc1ccccc1-c1cc(Nc2ccc(NC(=O)[C@@H]3CCN3)cc2)ncn1`, the half-maximal inhibitory concentration (IC50) is 1 to 10 µM.
To `COc1ccc(-c2cc(Nc3ccc(NC(=O)c4ccc(N)cc4)cc3)ncn2)cc1` belongs 1 to 10 µM; to `COc1ccccc1-c1cc(Nc2ccc(NC(=O)c3ccc(N)cc3)cc2)ncn1`, 1 to 10 µM; to `COc1ccccc1-c1cc(Nc2ccc(NC(=O)Nc3ccc4c(c3)OCO4)cc2)ncn1`, 10 to 250 µM.
As for `Nc1ccc(C(=O)Nc2ccc(Nc3cc(-c4ccccc4)ncn3)cc2)cc1`, the IC50 lay in the range of 10 to 250 µM.
To `COc1ccccc1-c1cc(Nc2ccc(C(=O)Nc3ccc(C(C)(C)C)cc3)cc2)ncn1` belongs 10 to 250 µM.
Regarding `COc1ccccc1-c1cc(Nc2cccc(N)c2)ncn1`, the IC50 fell in the range of 0.001 to 1 µM.
`COc1ccccc1-c1cc(Nc2ccc(NC(=O)c3ccc4ccccc4c3O)cc2)ncn1`: the IC50 fell in the range of 1 to 10 µM.
Regarding `COc1ccccc1-c1cc(Nc2ccc(NC(=O)c3ccc4[nH]cnc4c3)cc2)ncn1`, the IC50 is 10 to 250 µM.
`Cc1ccc(Nc2cc(-c3ccccc3)ncn2)cc1NS(C)(=O)=O`: the IC50 lay within 0.001 to 1 µM.
In turn, `CS(=O)(=O)Nc1cccc(Nc2cc(-c3cccc(N)c3)ncn2)c1` displayed an IC50 of 1 to 10 µM.
In the case of `COc1ccccc1-c1cc(Nc2ccc(NC(=O)C3CCN(C)CC3)cc2)ncn1`, the IC50 was 1 to 10 µM.
Compound `Cc1ccc(S(=O)(=O)Nc2ccc(Nc3cc(Cl)ncn3)cc2)cc1` displayed an IC50 of 1 to 10 µM.
Take `COc1ccccc1-c1cc(Nc2ccc(NC(=O)c3ccccc3N)cc2)ncn1`: the IC50 fell in the range of 1 to 10 µM.
On to `COc1ccccc1-c1cc(N(C)c2ccc(NS(=O)(=O)c3ccc(C)cc3)cc2)ncn1`, for which the IC50 fell in the range of 1 to 10 µM.
For `CC(C)Oc1ccccc1-c1cc(Nc2ccc(C(=O)N[C@@H]3CCCC[C@H]3N)cc2)ncn1.CC(C)Oc1ccccc1-c1cc(Nc2ccc(C(=O)N[C@H]3CCCC[C@@H]3N)cc2)ncn1`, the IC50 was in the range of 1 to 10 µM.
As to `CC(=O)Nc1cccc(-c2cc(Nc3ccc(C)c(NS(C)(=O)=O)c3)ncn2)c1`, the IC50 fell in the range of 1 to 10 µM.
`COc1ccccc1-c1cc(Nc2ccc(NC(=O)C3(NC(=O)OC(C)(C)C)CCCC3)cc2)ncn1` showed an IC50 of 10 to 250 µM.
To `COc1ccc(-c2cc(NCCc3ccncc3)ncn2)cc1` belongs 10 to 250 µM; to `COc1ccccc1-c1cc(NCCc2ccncc2)ncn1`, 10 to 250 µM.
Take `CC(C)(C)C(=O)Nc1ccc(Nc2cc(NCCCO)ncn2)cc1`: the IC50 fell in the range of 10 to 250 µM.
As to `COc1cccc(-c2cc(Nc3ccc(NC(=O)c4ccc(N)cc4)cc3)ncn2)c1OC`, the IC50 was in the range of 1 to 10 µM.
